# Calls of active or inactive are those of the source. The calls are words filed in the database; no cut-off is given here.
# Tests used:
# [1] = target: T1, Oxoeicosanoid receptor 1 (Homo sapiens, UniProt Q8TDS5); assay: Agonist activity at 5-oxo-ETE receptor in human neutrophils assessed as stimulation of ca2+ mobilization at 100 nM in presence of 5-oxo-ETE; assay type: functional
# [2] = target: T1, Oxoeicosanoid receptor 1; assay: Agonist activity at 5-oxo-ETE receptor in human neutrophils assessed as stimulation of ca2+ mobilization; assay type: functional
# [3] = Stability of the compound at -80 degC after 3 years by reversed-phase HPLC; assay type: physicochemical; conditions: 26298 h
# T1 sequence (Q8TDS5 whole entry): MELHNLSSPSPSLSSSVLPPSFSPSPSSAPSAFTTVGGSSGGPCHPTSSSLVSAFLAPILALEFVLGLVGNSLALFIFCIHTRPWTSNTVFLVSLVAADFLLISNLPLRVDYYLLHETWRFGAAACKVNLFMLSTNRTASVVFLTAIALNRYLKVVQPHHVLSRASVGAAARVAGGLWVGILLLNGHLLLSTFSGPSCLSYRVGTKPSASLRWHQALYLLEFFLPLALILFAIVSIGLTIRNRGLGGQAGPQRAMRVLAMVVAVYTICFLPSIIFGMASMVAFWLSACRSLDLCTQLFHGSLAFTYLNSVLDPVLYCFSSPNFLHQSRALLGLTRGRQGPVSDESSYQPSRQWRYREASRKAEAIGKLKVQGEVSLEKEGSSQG
Structure (SMILES),Activity [1],EC50 [2],Stability [3]
CCCCC[C@H](O)/C=C/C=C\C/C=C\C=C\C(=O)CCCC(=O)O,inactive,56 nM,Stable
CCCCC/C=C\C/C=C\C/C=C\C=C\C(=O)CCCC(=O)O [5-OXO-ETE],–,7 nM,–

# — ChEMBL document CHEMBL1681722, “5-oxo-15-HETE: total synthesis and bioactivity” (Bioorg Med Chem Lett, 2011)
